# Results published in US4031210A, “Antibiotic aminoglycosides, processes of preparation and pharmaceutical compositions” (Roussel-UCLAF, priority 1974, dated 1977).
# Counter-ions that a name gives are not always drawn. Like-named read-outs stand apart in the source and are kept apart here.
# Experiments:
# [1] = tested on: Staphylococcus aureus 38 691; test: In vitro antibacterial activity, dilution method in liquid medium; format: cell-based; details: 37°, expressed as base, read-out: minimal inhibiting concentration (MIC)
# Experimental: (§1) The antibacterial activity has been measured in vitro by the dilution method in liquid medium. A series of tubes is prepared in which is distributed the same quantity of nutritive medium. Increasing quantities of the antibiotic under study are distributed, then each tube is innoculated with a bacterial strain as indicated in the table. After a 18, 24 or 48 hour incubation in a 37° oven, inhibition of the bacterial growth is appraised by transillumination which determines the minimal inhibiting concentration (MIC) of the products expressed as μg/ml of base in the table. In the following table, the product of Example 2 is identified as Product A.
# [2] = tested on: Enterobacter aerogenes Co86; test: as above; format: cell-based; details: Klebsiella aerogenes, 37°, expressed as base, read-out: minimal inhibiting concentration (MIC)
# Experimental: as §1
# [3] = tested on: Staphylococcus aureus 40 481; test: as above; format: cell-based; details: 37°, expressed as base, read-out: minimal inhibiting concentration (MIC)
# Experimental: as §1
# [4] = tested on: Staphylococcus aureus 40 821; test: as above; format: cell-based; details: 37°, expressed as base, read-out: minimal inhibiting concentration (MIC)
# Experimental: as §1
# [5] = tested on: Escherichia coli 156; test: as above; format: cell-based; details: 37°, expressed as base, read-out: minimal inhibiting concentration (MIC)
# Experimental: as §1
# [6] = tested on: Escherichia coli 9 911; test: as above; format: cell-based; details: 37°, expressed as base, read-out: minimal inhibiting concentration (MIC)
# Experimental: as §1
# [7] = tested on: Salmonella anatum 23 348; test: as above; format: cell-based; details: Salmonella enterica, 23348, 37°, expressed as base, read-out: minimal inhibiting concentration (MIC)
# Experimental: as §1
# [8] = tested on: Enterobacter aerogenes Co11; test: as above; format: cell-based; details: Klebsiella aerogenes, 37°, expressed as base, read-out: minimal inhibiting concentration (MIC)
# Experimental: as §1
# [9] = tested on: Staphylococcus aureus 40 511; test: as above; format: cell-based; details: 37°, expressed as base, read-out: minimal inhibiting concentration (MIC)
# Experimental: as §1
# [10] = tested on: Serratia marcesens CoB 35; test: as above; format: cell-based; details: 37°, expressed as base, read-out: minimal inhibiting concentration (MIC)
# Experimental: as §1
# [11] = tested on: Salmonella typhimurium 420; test: as above; format: cell-based; details: Salmonella enterica, 37°, expressed as base, read-out: minimal inhibiting concentration (MIC)
# Experimental: as §1
# [12] = tested on: Streptococcus faecalis 99 F 74; test: as above; format: cell-based; details: Enterococcus faecalis, 99F74; 18 H incubation, 37°, expressed as base; read-out: minimal inhibiting concentration (MIC)
# Experimental: as §1
# [13] = tested on: Escherichia coli 9 965; test: as above; format: cell-based; details: 37°, expressed as base, read-out: minimal inhibiting concentration (MIC)
# Experimental: as §1
# [14] = tested on: Salmonella typhimurium 1 374; test: as above; format: cell-based; details: Salmonella enterica, 37°, expressed as base, read-out: minimal inhibiting concentration (MIC)
# Experimental: as §1
# [15] = tested on: Klebsiella Pneumonia No. 52145; test: In vivo antibacterial activity on experimental Klebsiella Pneumonia infection in mice; details: subcutaneous, 1, 5 and 24 hours after infection, 10 mice
# Experimental: The antibacterial activity has been measured in vivo on an experimental Klebsiella Pneumonia infection.
# 40 male mice with a medium weight of 21 grams were divided in 4 series of 10 mice. An intraperitoneal infection with 0.5 ml of a Klebsiella Pneumonia No. 52145 culture in nutritive medium diluted to one thousandth with sterile water is conducted. Treatment is performed by a subcutaneous administration of the product of Example 2, (Product A) three times, (1 hour, 5 hours and 24 hours) after infection. The mortality rate at different times as indicated in the table was measured as well as the number of mice surviving after 8 days.
# [16] = total dose 0,03 mg (as free base)
smiles,measurement,setting,value
"CNC1CC(C)OC(OC2C(N)CC(N)C(OC3OC(CN)C(O)CC3N)C2O)C1O [Product A, 4-0-[2',6'-diamino 2', 3', 6'-tridesoxy α, D-ribohexopyranosyl] 6-0-[3""-methylamino 3"",4"",6""-tridesoxy α, D-xylohexopyranosyl] 2-desoxy streptamine sulfate]",MIC,"[1]; 38691, 24 H incubation",0.1 µg/mL
same,MIC,"[1]; 38691, 48 H incubation",0.1 µg/mL
same,MIC,[2]; 18 H incubation,0.6 µg/mL
same,MIC,[2]; 24 H incubation,0.6 µg/mL
same,MIC,[2]; 48 H incubation,0.6 µg/mL
same,MIC,"[3]; 40481, 18 H incubation",0.1 µg/mL
same,MIC,"[3]; 40481, 24 H incubation",0.1 µg/mL
same,MIC,"[3]; 40481, 48 H incubation",0.2 µg/mL
same,MIC,"[4]; 40821, 18 H incubation",0.1 µg/mL
same,MIC,"[4]; 40821, 24 H incubation",0.1 µg/mL
same,MIC,"[4]; 40821, 48 H incubation",0.1 µg/mL
same,MIC,[5]; 18 H incubation,0.4 µg/mL
same,MIC,[5]; 24 H incubation,0.6 µg/mL
same,MIC,[5]; 48 H incubation,1 µg/mL
same,MIC,"[6]; 9911, 18 H incubation",0.6 µg/mL
same,MIC,"[6]; 9911, 24 H incubation",0.6 µg/mL
same,MIC,"[6]; 9911, 48 H incubation",0.2 µg/mL
same,MIC,[7]; 18 H incubation,1 µg/mL
same,MIC,[7]; 24 H incubation,3 µg/mL
same,MIC,[7]; 48 H incubation,15 µg/mL
same,MIC,[8]; 18 H incubation,0.4 µg/mL
same,MIC,[8]; 24 H incubation,0.4 µg/mL
same,MIC,[8]; 48 H incubation,1 µg/mL
same,MIC,"[9]; 40511, 18 H incubation",0.2 µg/mL
same,MIC,"[9]; 40511, 24 H incubation",0.6 µg/mL
same,MIC,"[9]; 40511, 48 H incubation",1 µg/mL
same,MIC,"[10]; COB35, 18 H incubation",10 µg/mL
same,MIC,"[10]; COB35, 24 H incubation",40 µg/mL
same,MIC,"[10]; COB35, 48 H incubation",40 µg/mL
same,MIC,[11]; 18 H incubation,2 µg/mL
same,MIC,[11]; 24 H incubation,5 µg/mL
same,MIC,[11]; 48 H incubation,20 µg/mL
same,MIC,[12],> 20 µg/mL
same,MIC,"[13]; 9965, 18 H incubation",0.6 µg/mL
same,MIC,"[13]; 9965, 24 H incubation",1 µg/mL
same,MIC,"[13]; 9965, 48 H incubation",2 µg/mL
same,MIC,[14]; 18 H incubation,1 µg/mL
same,MIC,[14]; 24 H incubation,5 µg/mL
same,MIC,[14]; 48 H incubation,10 µg/mL
same,Mortality at 5 H,[15]; [16],1
same,Survived to the eighth day (number of mice),[15]; [16],9 mice
same,Survived to the eighth day (number of mice),"[15]; total dose 0,05 mg (as free base)",10 mice
same,Survived to the eighth day (number of mice),"[15]; total dose 0,075 mg (as free base)",10 mice
